Reference: patent publication US12685312B2, “Sulfonamide apyrase inhibitors” (Texas Crop Science, Inc., priority 2022, dated 2026)

tested on: apyrase; test: Screen for apyrase inhibitors (Method 1, in vitro phosphate-release absorbance assay); type: biochemical; settings: inhibitor conc at 1 mM stock, 1 hr room temperature, absorbance 630 nm; rounded average of two assay results
Protocol: Apyrase inhibitors useful as enhancers of pesticidal activity are assessed using an in vitro assay. The method of Windsor, Bio Techniques 33:1024-1030 (November 2002) was used as follows Screen for Apyrase Inhibitors- 96 well plates were used for the assay: (Greiner bio-one: REF-655901-96 well, PS, F-bottom, Clear, Non-binding) Buffers: • Reaction Buffer: 60 mM Hepes; 3 mM MgCl2, 3 mM CaCl2 and 3 mM ATP (pH 6.5) • Development Buffer A: 2% aqueous ammonium molybdate • Development Buffer B: 11% ascorbic acid in 37.5% TCA in water • Stop buffer C: 2% trisodium citrate in 2% acetic acid solution in water • Add 100 μl of reaction buffer to each well. • Add 10 μl of DMSO (control) or inhibitor/compound or compounds such as […] or orthovanadate to each well. […] A blank cell indicates either <10% observed inhibition or a large difference between repetitions. In certain examples, the lack of observed inhibition is due to a lack of solubility of the compound under assay conditions, rather than a lack of apyrase inhibitory activity.

| SMILES | % Inhibition of Apyrase [%] |
| --- | --- |
| COc1ccc(NC(=O)c2cccc(S(=O)(=O)N3CCc4ccccc43)c2)c(OC)c1 [I-575, N-(2,4-dimethoxyphenyl)-3-(indolin-1-ylsulfonyl)benzamide] | 49 |
| O=C(Nc1ccc2c(c1)OCCCO2)c1cccc(S(=O)(=O)Nc2ccc3c(c2)OCO3)c1 [I-258, 3-(N-(benzo[d][1,3]dioxol-5-yl)sulfamoyl)-N-(3,4-dihydro-2H-benzo[b][1,4]dioxepin-7-yl)benzamide] | 61 |
| COc1ccccc1N(C)S(=O)(=O)c1ccc(C(=O)N2CCSc3ccccc32)cc1 [I-867, 4-(3,4-dihydro-2H-benzo[b][1,4]thiazine-4-carbonyl)-N-(2-methoxyphenyl)-N-methylbenzenesulfonamide] | 58 |
| CC1Cc2ccccc2N1C(=O)c1cccc(S(=O)(=O)Nc2cc(C(F)(F)F)ccc2Cl)c1 (centres unmarked) [I-579, N-(2-chloro-5-(trifluoromethyl)phenyl)-3-(2-methylindoline-1-carbonyl)benzenesulfonamide] | 48 |
| O=C(c1ccc(Cl)c(S(=O)(=O)N2CCc3ccccc32)c1)N1CCc2ccccc21 [I-448, (4-chloro-3-(indolin-1-ylsulfonyl)phenyl)(indolin-1-yl)methanone] | 61 |
| Cc1ccc(NS(=O)(=O)c2ccc(Cl)c(C(=O)N3CCc4ccccc43)c2)cc1C [I-459, 4-chloro-N-(3,4-dimethylphenyl)-3-(indoline-1-carbonyl)benzenesulfonamide] | 60 |
| Cc1ccc(NC(=O)c2cccc(S(=O)(=O)N3CCc4ccccc43)c2)cc1C [I-452, N-(3,4-dimethylphenyl)-3-(indolin-1-ylsulfonyl)benzamide] | 60 |
| COc1ccc(S(=O)(=O)N2CCc3ccccc32)cc1C(=O)Nc1ccccc1C [I-436, 5-(indolin-1-ylsulfonyl)-2-methoxy-N-(o-tolyl)benzamide] | 64 |
| COc1ccc(C(=O)N2c3ccccc3CC2C)cc1S(=O)(=O)Nc1ccc(C)cc1 (centres unmarked) [I-545, 2-methoxy-5-(2-methylindoline-1-carbonyl)-N-(p-tolyl)benzenesulfonamide] | 53 |
| Cc1ccc2c(c1)CCCN2C(=O)c1cccc(S(=O)(=O)Nc2ccccc2F)c1 [I-574, N-(2-fluorophenyl)-3-(6-methyl-1,2,3,4-tetrahydroquinoline-1-carbonyl)benzenesulfonamide] | 49 |
| O=C(Nc1cccc(F)c1)c1ccc(Cl)c(S(=O)(=O)N2CCc3ccccc32)c1 [I-537, 4-chloro-N-(3-fluorophenyl)-3-(indolin-1-ylsulfonyl)benzamide] | 54 |
| COc1ccc(S(=O)(=O)N2CCc3ccccc32)cc1C(=O)Nc1ccc(OC(F)F)c(Cl)c1 [I-440, N-(3-chloro-4-(difluoromethoxy)phenyl)-5-(indolin-1-ylsulfonyl)-2-methoxybenzamide] | 62 |
| COc1ccc([N+](=O)[O-])cc1NC(=O)c1cccc(S(=O)(=O)N2c3ccccc3CC2C)c1 (centres unmarked) [I-271, N-(2-methoxy-5-nitrophenyl)-3-((2-methylindolin-1-yl)sulfonyl)benzamide] | 56 |

Second part, the compound after the results:

| % Inhibition of Apyrase [%] | SMILES |
| --- | --- |
| 8 | O=C(Nc1ccccc1NS(=O)(=O)c1ccc2oc(=O)ccc2c1)c1ccc(Cl)cc1 [I-841, 4-chloro-N-(2-((2-oxo-2H-chromene)-6-sulfonamido)phenyl)benzamide] |
| 69 | O=C(Nc1ccccc1Cl)c1cccc(S(=O)(=O)Nc2ccc(Cl)cc2)c1 [I-177, N-(2-chlorophenyl)-3-(N-(4-chlorophenyl)sulfamoyl)benzamide] |
| 66 | O=C(Nc1cccc(S(=O)(=O)Nc2ccc(Br)cc2)c1)c1ccc2ncsc2c1 [I-199, N-(3-(N-(4-bromophenyl)sulfamoyl)phenyl)benzo[d]thiazole-6-carboxamide] |
| 58 | O=C(Nc1ccc(S(=O)(=O)Nc2cccc(C(F)(F)F)c2)cc1)c1ccc(Cl)c([N+](=O)[O-])c1 [I-979, 4-chloro-3-nitro-N-(4-(N-(3-(trifluoromethyl)phenyl)sulfamoyl)phenyl) benzamide] |
| 20 | O=C(Nc1ccccc1)c1ccccc1NS(=O)(=O)c1cccc(C(F)(F)F)c1 [I-377, N-phenyl-2-((3-(trifluoromethyl)phenyl)sulfonamido) benzamide] |
| 74 | O=C(Nc1cccc(F)c1)c1ccc(S(=O)(=O)Nc2ccc(Cl)cc2)cc1 [I-223, 4-(N-(4-chlorophenyl)sulfamoyl)-N-(3-fluorophenyl)benzamide] |
| 65 | Cc1ccc(NC(=O)c2ccc(NS(=O)(=O)c3ccc(F)c(F)c3)cc2)cc1 [I-899, 4-((3,4-difluorophenyl)sulfonamido)-N-(p-tolyl)benzamide] |
| 68 | O=C(Nc1ccc(F)c(F)c1)c1cccc(S(=O)(=O)Nc2ccc3c(c2)OCO3)c1 [I-220, 3-(N-(benzo[d][1,3]dioxol-5-yl)sulfamoyl)-N-(3,4-difluorophenyl)benzamide] |
| 65 | COc1ccccc1NC(=O)c1ccc(NS(=O)(=O)c2ccc3c(c2)OCCO3)cc1 [I-898, 4-((2,3-dihydrobenzo[b][1,4]dioxine)-6-sulfonamido)-N-(2-methoxyphenyl)benzamide] |
| 52 | O=C(Nc1ccc2c(c1)OCO2)c1ccc(NS(=O)(=O)c2ccc(Br)cc2)cc1 [I-935, N-(benzo[d][1,3]dioxol-5-yl)-4-((4-bromophenyl)sulfonamido)benzamide] |
| 58 | COc1cccc(S(=O)(=O)Nc2ccc(C(=O)Nc3cccc(C(F)(F)F)c3)cc2)c1 [I-916, 4-((3-methoxyphenyl)sulfonamido)-N-(3-(trifluoromethyl)phenyl)benzamide] |
| 55 | Cc1ccc(C)c(S(=O)(=O)Nc2cccc(C(=O)Nc3ccc(F)cn3)c2)c1 [I-641, 3-((2,5-dimethylphenyl)sulfonamido)-N-(5-fluoropyridin-2-yl)benzamide] |
| 53 | Cc1ccc(S(C)(=O)=O)cc1C(=O)Nc1cccc(NS(=O)(=O)c2ccc(Cl)cc2)c1 [I-346, N-(3-((4-chlorophenyl)sulfonamido)phenyl)-2-methyl-5-(methylsulfonyl)benzamide] |
| 57 | Cc1ccc(NC(=O)c2cccc(S(=O)(=O)N(C)c3ccc(C)cc3)c2)cc1 [I-502, 3-(N-methyl-N-(p-tolyl)sulfamoyl)-N-(p-tolyl)benzamide] |
| 71 | O=C(Nc1ccccn1)c1cccc(NS(=O)(=O)c2ccc(Br)cc2)c1 [I-627, 3-((4-bromophenyl)sulfonamido)-N-(pyridin-2-yl)benzamide] |
| 29 | COc1ccccc1NS(=O)(=O)c1ccc(NC(=O)c2ccc(C#N)cc2)cc1 [I-999, 4-cyano-N-(4-(N-(2-methoxyphenyl)sulfamoyl)phenyl)benzamide] |
